Columns and labels:
[1] = molecular target: NAMPT (human, recombinant, C-terminally His-tagged) (Homo sapiens, UniProt P43490); assay: Time-Resolved Fluorescence Resonance Energy Transfer (TR-FRET) Binding Assay of NAMPT; conditions: without substrates; 6.8 nM NAMPT, 200 nM probe, 3 hours equilibration
Summary of the method: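 Compounds, diluted in half-log steps, are mixed with enzyme (6.8 nM), fluorescent probe (200 nM) and Tb-anti-His antibody (1 nM) in pH 7.5 HEPES buffer containing 10 mM MgCl2 and 1 mM DTT. Plates equilibrate 3 h at room temperature; normalized FRET ratios are fitted by four-parameter logistic regression for IC50.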

NAMPT = NAMPT (Homo sapiens, UniProt P43490); assay: TR-FRET Binding Assay of NAMPT with PRPP; conditions: with 200 μM PRPP and 2.5 mM ATP; 2 nM NAMPT, 2 nM probe, 16 hours equilibration
Chain of NAMPT (P43490 whole entry): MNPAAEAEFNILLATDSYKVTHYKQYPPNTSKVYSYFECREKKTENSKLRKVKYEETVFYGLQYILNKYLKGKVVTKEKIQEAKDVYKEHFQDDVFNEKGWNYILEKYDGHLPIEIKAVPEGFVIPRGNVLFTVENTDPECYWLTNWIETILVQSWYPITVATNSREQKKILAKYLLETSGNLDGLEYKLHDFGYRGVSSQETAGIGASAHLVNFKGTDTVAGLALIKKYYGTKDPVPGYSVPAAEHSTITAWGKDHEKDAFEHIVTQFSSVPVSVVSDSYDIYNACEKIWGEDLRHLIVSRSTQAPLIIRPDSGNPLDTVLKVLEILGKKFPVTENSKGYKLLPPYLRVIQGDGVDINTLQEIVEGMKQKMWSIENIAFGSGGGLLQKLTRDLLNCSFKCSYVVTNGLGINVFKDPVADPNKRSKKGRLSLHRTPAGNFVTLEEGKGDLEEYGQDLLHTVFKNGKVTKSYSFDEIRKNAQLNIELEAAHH
Summary of the method: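 Compounds were mixed with 2 nM His-tagged NAMPT, 2 nM probe, 1 nM terbium anti-His antibody, 200 μM PRPP and 2.5 mM ATP in assay buffer with 2% DMSO, then left 16 hours to permit possible enzymatic processing of compounds before time-resolved FRET was measured.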

PC3 cells = assay: NAMPT Cell Proliferation Assay; type: cell-based; conditions: Homo sapiens, PC-3, 120 h, 5 days incubation, cell viability by Cell Titer Glo
Summary of the method: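 Proliferation of PC3 cells treated 5 days with a 10-fold compound series (top 10 μM) was quantified by Cell Titer Glo luminescence; IC50s were fitted from percent inhibition.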

Chain of NAMPT (human, recombinant, C-terminally His-tagged) (P43490 whole entry): as above

IC50 [1] | IC50 (NAMPT) | IC50 (PC3 cells) | SMILES
42.1 nM | 0.169 nM | 6.34 nM | O=C(NCc1ccn2ccnc2c1)c1ccc(-c2cnn(CC3COCCO3)c2)s1 (stereo not drawn) [Example 316, 5-[1-(1,4-dioxan-2-ylmethyl)-1H-pyrazol-4-yl]-N-(imidazo[1,2-a]pyridin-7-ylmethyl)thiophene-2-carboxamide]
317 nM | 0.282 nM | 542 nM | O=C(NCc1ccn2ccnc2c1)c1ccc(-c2cnn(CCO)c2)s1 [Example 317, 5-[1-(2-hydroxyethyl)-1H-pyrazol-4-yl]-N-(imidazo[1,2-a]pyridin-7-ylmethyl)thiophene-2-carboxamide]
466 nM | 0.192 nM | 29.3 nM | O=C(NCc1ccn2ccnc2c1)c1cnc(C2=CCN(C(=O)C3CCOCC3)CC2)s1 [Example 319, N-(imidazo[1,2-a]pyridin-7-ylmethyl)-2-[1-(tetrahydro-2H-pyran-4-ylcarbonyl)-1,2,3,6-tetrahydropyridin-4-yl]-1,3-thiazole-5-carboxamide]
96.3 nM | 0.208 nM | 171 nM | CC(C)C(=O)N1CC=C(c2ncc(C(=O)NCc3ccn4ccnc4c3)s2)CC1 [Example 320, N-(imidazo[1,2-a]pyridin-7-ylmethyl)-2-[1-(2-methylpropanoyl)-1,2,3,6-tetrahydropyridin-4-yl]-1,3-thiazole-5-carboxamide]
3160 nM | 0.792 nM | 1130 nM | CC[C@H](C)C(=O)N1CC[C@H](Oc2ccc(C(=O)NCc3ccn4ccnc4c3)cc2)C1 [Example 321, N-(imidazo[1,2-a]pyridin-7-ylmethyl)-4-({(3S)-1-[(2S)-2-methylbutanoyl]pyrrolidin-3-yl}oxy)benzamide]
6040 nM | 34.1 nM | > 10000 nM | CC(C)(C)OC(=O)N1CCC(c2ccc(C(=O)Nc3ccn4ccnc4c3)cc2)CC1 [Example 322, tert-butyl 4-[4-(imidazo[1,2-a]pyridin-7-ylcarbamoyl)phenyl]piperidine-1-carboxylate]
1400 nM | 0.232 nM | 175 nM | CC(C)(C)OC(=O)N1CCC(c2ccc(C(=O)Nc3ccc4nccn4c3)cc2)CC1 [Example 323, tert-butyl 4-[4-(imidazo[1,2-a]pyridin-6-ylcarbamoyl)phenyl]piperidine-1-carboxylate]
981 nM | 0.752 nM | 54.7 nM | CC(C)C(=O)NC1(c2ccc(C(=O)NCc3ccn4ccnc4c3)s2)COC1 [Example 324, N-(imidazo[1,2-a]pyridin-7-ylmethyl)-5-{3-[(2-methylpropanoyl)amino]oxetan-3-yl}thiophene-2-carboxamide]
180 nM | 0.278 nM | 32.9 nM | O=C(NC1(c2ccc(C(=O)NCc3ccn4ccnc4c3)s2)COC1)c1ccccc1 [Example 325, 5-[3-(benzoylamino)oxetan-3-yl]-N-(imidazo[1,2-a]pyridin-7-ylmethyl)thiophene-2-carboxamide]
2350 nM | 1.3 nM | 457 nM | O=C(CC1CCOC1)NC1(c2ccc(C(=O)NCc3ccn4ccnc4c3)s2)COC1 (stereo not drawn) [Example 326, N-(imidazo[1,2-a]pyridin-7-ylmethyl)-5-{3-[(tetrahydrofuran-3-ylacetyl)amino]oxetan-3-yl}thiophene-2-carboxamide]
1320 nM | 0.558 nM | 638 nM | CCCCC(=O)NC1(c2ccc(C(=O)NCc3ccn4ccnc4c3)s2)COC1 [Example 327, N-(imidazo[1,2-a]pyridin-7-ylmethyl)-5-[3-(pentanoylamino)oxetan-3-yl]thiophene-2-carboxamide]
68 nM | 0.169 nM | 8.9 nM | CC[C@H](C)C(=O)N1CC[C@H](Oc2ccc(NC(=O)NCc3ccn4ccnc4c3)cc2)C1 [Example 328, 1-(imidazo[1,2-a]pyridin-7-ylmethyl)-3-[4-({(3S)-1-[(2S)-2-methylbutanoyl]pyrrolidin-3-yl]oxy)phenyl}urea]
30.8 nM | 0.169 nM | 12.4 nM | O=C(NCc1ccn2ccnc2c1)Nc1ccc(O[C@@H]2CCN(C(=O)c3ccccc3)C2)cc1 [Example 329, 1-(4-{[(3R)-1-benzoylpyrrolidin-3-yl]oxy}phenyl)-3-(imidazo[1,2-a]pyridin-7-ylmethyl)urea]
320 nM | 0.432 nM | 22.9 nM | CC(C)C(=O)N1CC[C@@H](Oc2ccc(NC(=O)NCc3ccn4ccnc4c3)cc2)C1 [Example 330, 1-(imidazo[1,2-a]pyridin-7-ylmethyl)-3-(4-{[(3R)-1-(2-methylpropanoyl)pyrrolidin-3-yl]oxy}phenyl)urea]
383 nM | 0.416 nM | 227 nM | O=C(NCc1ccn2ccnc2c1)Nc1ccc(O[C@@H]2CCN(C(=O)C3CC3)C2)cc1 [Example 331, 1-(4-{[(3R)-1-(cyclopropylcarbonyl)pyrrolidin-3-yl]oxy}phenyl)-3-(imidazo[1,2-a]pyridin-7-ylmethyl)urea]
180 nM | 0.297 nM | 64.3 nM | O=C(NCc1ccn2ccnc2c1)Nc1ccc(O[C@@H]2CCN(C(=O)CC3CC3)C2)cc1 [Example 332, 1-(4-{[(3R)-1-(cyclopropylacetyl)pyrrolidin-3-yl]oxy}phenyl)-3-(imidazo[1,2-a]pyridin-7-ylmethyl)urea]
583 nM | 0.346 nM | 116 nM | O=C(NCc1ccn2ccnc2c1)Nc1ccc(O[C@@H]2CCN(C(=O)C3CCOCC3)C2)cc1 [Example 333, 1-(imidazo[1,2-a]pyridin-7-ylmethyl)-3-(4-{[(3R)-1-(tetrahydro-2H-pyran-4-ylcarbonyl)pyrrolidin-3-yl]oxy}phenyl)urea]
80.9 nM | 0.345 nM | 21.9 nM | CC(C)(O)C(=O)N1CC[C@@H](Oc2ccc(NC(=O)NCc3ccn4ccnc4c3)cc2)C1 [Example 334, 1-(4-{[(3R)-1-(2-hydroxy-2-methylpropanoyl)pyrrolidin-3-yl]oxy}phenyl)-3-(imidazo[1,2-a]pyridin-7-ylmethyl)urea]
632 nM | 0.354 nM | 97.6 nM | O=C(NCc1ccn2ccnc2c1)Nc1ccc(O[C@@H]2CCN(C(=O)[C@H]3CCCO3)C2)cc1 [Example 335, 1-(imidazo[1,2-a]pyridin-7-ylmethyl)-3-[4-({(3R)-1-[(2R)-tetrahydrofuran-2-ylcarbonyl]pyrrolidin-3-yl}oxy)phenyl]urea]
334 nM | 0.264 nM | 139 nM | O=C(NCc1ccn2ccnc2c1)Nc1ccc(O[C@@H]2CCN(C(=O)[C@@H]3CCCO3)C2)cc1 [Example 336, 1-(imidazo[1,2-a]pyridin-7-ylmethyl)-3-[4-({(3R)-1-[(2S)-tetrahydrofuran-2-ylcarbonyl]pyrrolidin-3-yl}oxy)phenyl]urea]
497 nM | 0.205 nM | 533 nM | O=C(NCc1ccn2ccnc2c1)Nc1ccc(O[C@@H]2CCN(C(=O)C3CCOC3)C2)cc1 (stereo partly drawn) [Example 337, 1-(imidazo[1,2-a]pyridin-7-ylmethyl)-3-(4-{[(3R)-1-(tetrahydrofuran-3-ylcarbonyl)pyrrolidin-3-yl]oxy}phenyl)urea]
609 nM | 0.394 nM | 81 nM | O=C(NCc1ccn2ccnc2c1)Nc1ccc(O[C@@H]2CCN(C(=O)CC3CCOCC3)C2)cc1 [Example 338, 1-(imidazo[1,2-a]pyridin-7-ylmethyl)-3-(4-{[(3R)-1-(tetrahydro-2H-pyran-4-ylacetyl)pyrrolidin-3-yl]oxy}phenyl)urea]
> 10000 nM | 0.797 nM | 9180 nM | O=C(NCc1ccn2ccnc2c1)c1ccc(O[C@H]2CCN(C(=O)[C@@H]3CCOC3)C2)cc1 [Example 339, N-(imidazo[1,2-a]pyridin-7-ylmethyl)-4-({(3S)-1-[(3R)-tetrahydrofuran-3-ylcarbonyl]pyrrolidin-3-yl}oxy)benzamide]
> 10000 nM | 0.817 nM | > 10000 nM | O=C(NCc1ccn2ccnc2c1)c1ccc(O[C@H]2CCN(C(=O)[C@H]3CCCO3)C2)cc1 [Example 340, N-(imidazo[1,2-a]pyridin-7-ylmethyl)-4-({(3S)-1-[(2R)-tetrahydrofuran-2-ylcarbonyl]pyrrolidin-3-yl}oxy)benzamide]
> 10000 nM | 0.719 nM | 8300 nM | O=C(NCc1ccn2ccnc2c1)c1ccc(O[C@H]2CCN(C(=O)[C@@H]3CCCO3)C2)cc1 [Example 341, N-(imidazo[1,2-a]pyridin-7-ylmethyl)-4-({(3S)-1-[(2S)-tetrahydrofuran-2-ylcarbonyl]pyrrolidin-3-yl}oxy)benzamide]
> 10000 nM | 0.454 nM | 6730 nM | O=C(NCc1ccn2ccnc2c1)c1ccc(O[C@H]2CCN(C(=O)C3CCOCC3)C2)cc1 [Example 342, N-(imidazo[1,2-a]pyridin-7-ylmethyl)-4-{[(3S)-1-(tetrahydro-2H-pyran-4-ylcarbonyl)pyrrolidin-3-yl]oxy}benzamide]
> 10000 nM | 0.456 nM | 6530 nM | O=C(NCc1ccn2ccnc2c1)c1ccc(O[C@H]2CCN(C(=O)CC3CCOCC3)C2)cc1 [Example 343, N-(imidazo[1,2-a]pyridin-7-ylmethyl)-4-{[(3S)-1-(tetrahydro-2H-pyran-4-ylacetyl)pyrrolidin-3-yl]oxy}benzamide]
